Source: patent publication US20260265252A1, “SOLID STATE FORMS OF IMIPRIDONE DERIVATIVE” (CHIMERIX, INC., priority 2024, published 2026)
Counter-ions that a name gives are not always drawn.

Experiment: ICH-compliant stability study of ONC206-HCl Drug Substance (appearance, XRPD form, HPLC assay, purity/impurities, water content, particle size, microbial)
Assay type: physicochemical
Set-up: key to Each unidentified impurity (NMT 0.5% area) / Appearance (White to off-white solid) / Polymorphic form (XRPD) (Consistent with form 2 reference diffractogram): C = Conforms; A = Absence
Experimental: The purpose of the ICH-compliant stability study was to evaluate the performance to specifications of ONC206-HCl Drug Substance under specified container closure configuration, storage conditions, and intervals.
The study was performed according to ICH Q1A(R2) and QlE Guidance documents. […]
The Container Closure Systems were: • Primary container: LDPE bag, 4×8 inches (Source: Nexus—64378); bag closure PE 180 nm (Source: Entourage), • Secondary container: LDPE bag, 4×8 inches (Source: Nexus—64378); bag closure PE 180 nm (Source: Entourage), • Tertiary container: Heat-sealed foil bag, 15×30 (Source: SERCALIA S.L.—10234), and • Outer container: Plastic drum, 6 L (Source: Curtec, HDPE ref 54021) or Plastic drum, 3.6 L (Source: Curtec).

[1] = 25 ± 2° C./60% ± 5% RH long term storage conditions, 0 months
[2] = 25 ± 2° C./60% ± 5% RH long term storage conditions, 3 months
[3] = 25 ± 2° C./60% ± 5% RH long term storage conditions, 6 months
[4] = 25 ± 2° C./60% ± 5% RH long term storage conditions, 9 months
[5] = 25 ± 2° C./60% ± 5% RH long term storage conditions, 12 months
[6] = 30 ± 2° C./65% ± 5% RH intermediate conditions, 0 months
[7] = 30 ± 2° C./65% ± 5% RH intermediate conditions, 6 months
[8] = 30 ± 2° C./65% ± 5% RH intermediate conditions, 9 months

period over which stability is confirmed (2-8° C. (Table 39)): 6 months
Appearance (White to off-white solid) (2-8° C., 0 months): C
Assay by HPLC-UV (Anhydrous & Solvent Free basis) 97.0-103.0% w/w (2-8° C., 0 months): 101.6 % w/w
Each unidentified impurity (NMT 0.5% area) (2-8° C., 0 months): C
Particle Size (Malvern) D10 (Report result μm) (2-8° C., 0 months): 28.2 μm
Particle Size (Malvern) D50 (Report result μm) (2-8° C., 0 months): 91.4 μm
Particle Size (Malvern) D90 (Report result μm) (2-8° C., 0 months): 201.3 μm
Polymorphic form (XRPD) (Consistent with form 2 reference diffractogram) (2-8° C., 0 months): C
Purity by HPLC (NLT 98.0% area) (2-8° C., 0 months): 100.0 % area
Total impurities (NMT 2.0% area) (2-8° C., 0 months): 0.00 % area
Water Content by Kf (Report result % w/w) (2-8° C., 0 months): 9.3 % w/w
Appearance (White to off-white solid) (2-8° C., 1 months): C
Assay by HPLC-UV (Anhydrous & Solvent Free basis) 97.0-103.0% w/w (2-8° C., 1 months): 101.3 % w/w
Each unidentified impurity (NMT 0.5% area) (2-8° C., 1 months): C
Particle Size (Malvern) D10 (Report result μm) (2-8° C., 1 months): 27.8 μm
Particle Size (Malvern) D50 (Report result μm) (2-8° C., 1 months): 89.8 μm
Particle Size (Malvern) D90 (Report result μm) (2-8° C., 1 months): 196.0 μm
Polymorphic form (XRPD) (Consistent with form 2 reference diffractogram) (2-8° C., 1 months): C
Purity by HPLC (NLT 98.0% area) (2-8° C., 1 months): 100.0 % area
Total impurities (NMT 2.0% area) (2-8° C., 1 months): 0.00 % area
Water Content by Kf (Report result % w/w) (2-8° C., 1 months): 9.2 % w/w
Appearance (White to off-white solid) (2-8° C., 2 months): C
Assay by HPLC-UV (Anhydrous & Solvent Free basis) 97.0-103.0% w/w (2-8° C., 2 months): 100.3 % w/w
Each unidentified impurity (NMT 0.5% area) (2-8° C., 2 months): C
Particle Size (Malvern) D10 (Report result μm) (2-8° C., 2 months): 29.4 μm
Particle Size (Malvern) D50 (Report result μm) (2-8° C., 2 months): 91.6 μm
Particle Size (Malvern) D90 (Report result μm) (2-8° C., 2 months): 189.0 μm
Polymorphic form (XRPD) (Consistent with form 2 reference diffractogram) (2-8° C., 2 months): C
Purity by HPLC (NLT 98.0% area) (2-8° C., 2 months): 100.0 % area
Total impurities (NMT 2.0% area) (2-8° C., 2 months): 0.00 % area
Water Content by Kf (Report result % w/w) (2-8° C., 2 months): 9.4 % w/w
Appearance (White to off-white solid) (2-8° C., 3 months): C
Assay by HPLC-UV (Anhydrous & Solvent Free basis) 97.0-103.0% w/w (2-8° C., 3 months): 100.3 % w/w
Each unidentified impurity (NMT 0.5% area) (2-8° C., 3 months): C
Particle Size (Malvern) D10 (Report result μm) (2-8° C., 3 months): 28.3 μm
Particle Size (Malvern) D50 (Report result μm) (2-8° C., 3 months): 90.9 μm
Particle Size (Malvern) D90 (Report result μm) (2-8° C., 3 months): 197.0 μm
Polymorphic form (XRPD) (Consistent with form 2 reference diffractogram) (2-8° C., 3 months): C
Purity by HPLC (NLT 98.0% area) (2-8° C., 3 months): 100.0 % area
Total impurities (NMT 2.0% area) (2-8° C., 3 months): 0.00 % area
Water Content by Kf (Report result % w/w) (2-8° C., 3 months): 9.5 % w/w
Appearance (White to off-white solid) (2-8° C., 6 months): C
Assay by HPLC-UV (Anhydrous & Solvent Free basis) 97.0-103.0% w/w (2-8° C., 6 months): 99.6 % w/w
Each unidentified impurity (NMT 0.5% area) (2-8° C., 6 months): C
Particle Size (Malvern) D10 (Report result μm) (2-8° C., 6 months): 28.3 μm
Particle Size (Malvern) D50 (Report result μm) (2-8° C., 6 months): 91.1 μm
Particle Size (Malvern) D90 (Report result μm) (2-8° C., 6 months): 199.0 μm
Polymorphic form (XRPD) (Consistent with form 2 reference diffractogram) (2-8° C., 6 months): C
Purity by HPLC (NLT 98.0% area) (2-8° C., 6 months): 100.0 % area
Total impurities (NMT 2.0% area) (2-8° C., 6 months): 0.00 % area
Water Content by Kf (Report result % w/w) (2-8° C., 6 months): 9.3 % w/w
period over which stability is confirmed (25° C. (Table 42), 60% RH long term storage conditions): 12 months
Appearance (White to off-white solid) [1]: C
Assay by HPLC-UV (Anhydrous & Solvent Free basis) 97.0-103.0% w/w [1]: 101.6 % w/w
Each unidentified impurity (NMT 0.5% area) [1]: C
Particle Size (Malvern) D10 (Report result μm) [1]: 28.2 μm
Particle Size (Malvern) D50 (Report result μm) [1]: 91.4 μm
Particle Size (Malvern) D90 (Report result μm) [1]: 201.3 μm
Polymorphic form (XRPD) (Consistent with form 2 reference diffractogram) [1]: C
Purity by HPLC (NLT 98.0% area) [1]: 100.0 % area
Total impurities (NMT 2.0% area) [1]: 0.00 % area
Water Content by Kf (Report result % w/w) [1]: 9.3 % w/w
Appearance (White to off-white solid) [2]: C
Assay by HPLC-UV (Anhydrous & Solvent Free basis) 97.0-103.0% w/w [2]: 99.1 % w/w
Each unidentified impurity (NMT 0.5% area) [2]: C
Particle Size (Malvern) D10 (Report result μm) [2]: 28.3 μm
Particle Size (Malvern) D50 (Report result μm) [2]: 91.4 μm
Particle Size (Malvern) D90 (Report result μm) [2]: 199.0 μm
Polymorphic form (XRPD) (Consistent with form 2 reference diffractogram) [2]: C
Purity by HPLC (NLT 98.0% area) [2]: 100.0 % area
Total impurities (NMT 2.0% area) [2]: 0.00 % area
Water Content by Kf (Report result % w/w) [2]: 9.5 % w/w
Appearance (White to off-white solid) [3]: C
Assay by HPLC-UV (Anhydrous & Solvent Free basis) 97.0-103.0% w/w [3]: 100.2 % w/w
Each unidentified impurity (NMT 0.5% area) [3]: C
Particle Size (Malvern) D10 (Report result μm) [3]: 26.8 μm
Particle Size (Malvern) D50 (Report result μm) [3]: 88.5 μm
Particle Size (Malvern) D90 (Report result μm) [3]: 196.0 μm
Polymorphic form (XRPD) (Consistent with form 2 reference diffractogram) [3]: C
Purity by HPLC (NLT 98.0% area) [3]: 100.0 % area
Total impurities (NMT 2.0% area) [3]: 0.00 % area
Water Content by Kf (Report result % w/w) [3]: 9.3 % w/w
Appearance (White to off-white solid) [4]: C
Assay by HPLC-UV (Anhydrous & Solvent Free basis) 97.0-103.0% w/w [4]: 100.4 % w/w
Each unidentified impurity (NMT 0.5% area) [4]: C
Particle Size (Malvern) D10 (Report result μm) [4]: 30.2 μm
Particle Size (Malvern) D50 (Report result μm) [4]: 92.2 μm
Particle Size (Malvern) D90 (Report result μm) [4]: 192.0 μm
Polymorphic form (XRPD) (Consistent with form 2 reference diffractogram) [4]: C
Purity by HPLC (NLT 98.0% area) [4]: 100.0 % area
Total impurities (NMT 2.0% area) [4]: 0.00 % area
Water Content by Kf (Report result % w/w) [4]: 9.3 % w/w
Appearance (White to off-white solid) [5]: C
Assay by HPLC-UV (Anhydrous & Solvent Free basis) 97.0-103.0% w/w [5]: 99.6 % w/w
Each unidentified impurity (NMT 0.5% area) [5]: C
Particle Size (Malvern) D10 (Report result μm) [5]: 28.1 μm
Particle Size (Malvern) D50 (Report result μm) [5]: 91.3 μm
Particle Size (Malvern) D90 (Report result μm) [5]: 203.0 μm
Polymorphic form (XRPD) (Consistent with form 2 reference diffractogram) [5]: C
Purity by HPLC (NLT 98.0% area) [5]: 100.0 % area
Total impurities (NMT 2.0% area) [5]: 0.00 % area
Water Content by Kf (Report result % w/w) [5]: 9.3 % w/w
period over which stability is confirmed (30° C. (Table 43), 65% RH intermediate conditions): 12 months
Appearance (White to off-white solid) [6]: C
Assay by HPLC-UV (Anhydrous & Solvent Free basis) 97.0-103.0% w/w [6]: 101.6 % w/w
Each unidentified impurity (NMT 0.5% area) [6]: C
Particle Size (Malvern) D10 (Report result μm) [6]: 28.2 μm
Particle Size (Malvern) D50 (Report result μm) [6]: 91.4 μm
Particle Size (Malvern) D90 (Report result μm) [6]: 201.3 μm
Polymorphic form (XRPD) (Consistent with form 2 reference diffractogram) [6]: C
Purity by HPLC (NLT 98.0% area) [6]: 100.0 % area
Total impurities (NMT 2.0% area) [6]: 0.00 % area
Water Content by Kf (Report result % w/w) [6]: 9.3 % w/w
Appearance (White to off-white solid) [7]: C
Assay by HPLC-UV (Anhydrous & Solvent Free basis) 97.0-103.0% w/w [7]: 99.2 % w/w
Each unidentified impurity (NMT 0.5% area) [7]: C
Particle Size (Malvern) D10 (Report result μm) [7]: 29.3 μm
Particle Size (Malvern) D50 (Report result μm) [7]: 92.1 μm
Particle Size (Malvern) D90 (Report result μm) [7]: 199.0 μm
Polymorphic form (XRPD) (Consistent with form 2 reference diffractogram) [7]: C
Purity by HPLC (NLT 98.0% area) [7]: 100.0 % area
Total impurities (NMT 2.0% area) [7]: 0.00 % area
Water Content by Kf (Report result % w/w) [7]: 9.3 % w/w
Appearance (White to off-white solid) [8]: C
Assay by HPLC-UV (Anhydrous & Solvent Free basis) 97.0-103.0% w/w [8]: 100.2 % w/w
Each unidentified impurity (NMT 0.5% area) [8]: C
Structure (SMILES): O=C1C2=C(CCN(Cc3ccccc3)C2)N2CCN=C2N1Cc1ccc(F)cc1F [ONC206-HCl, 7-benzyl-4-(2,4-difluorobenzyl)-2,4,6,7,8,9-hexahydroimidazo[1,2-a]pyrido[3,4-e]pyrimidin-5(1H)-one]
